Results as given in PubChem BioAssay AID256 (DTP/NCI, 2004).
Values joined by “and” are separate entries in the source; they are usually repeats but may differ in a detail not shown here. Equal values may be shown once. Toxic doses and inconclusive results are not listed. How the source made its calls: active means survival T/C of 150% or more; inactive means T/C below 125% in these data.

Tested on: CD2F1 mice, L1210 leukemia ip, survival T/C
Assay: NCI In Vivo Anticancer Drug Screen. Data for tumor model L1210 Leukemia (intraperitoneal) in CD2F1 (CDF1) mice
Conditions: higher = longer survival
Outline: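 Tumor-bearing mice (transplanted tumor) were split into treated and vehicle control groups, and the measured endpoint of each treated group was divided by that of its vehicle controls.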

[1] = endpoint: mean survival time, dose: 50.0 mg/kg/injection, schedule: Q01DX009 (ip), vehicle: saline with Tween-80
[2] = endpoint: mean survival time, dose: 100.0 mg/kg/injection, schedule: Q01DX009 (ip), vehicle: saline with Tween-80
[3] = endpoint: mean survival time, dose: 200.0 mg/kg/injection, schedule: Q01DX009 (ip), vehicle: saline with Tween-80
[4] = endpoint: mean survival time, dose: 6.25 mg/kg/injection, schedule: Q01DX009 (ip), vehicle: saline with Tween-80
[5] = endpoint: mean survival time, dose: 12.5 mg/kg/injection, schedule: Q01DX009 (ip), vehicle: saline with Tween-80
[6] = endpoint: mean survival time, dose: 25.0 mg/kg/injection, schedule: Q01DX009 (ip), vehicle: saline with Tween-80
[7] = endpoint: mean survival time, dose: 400.0 mg/kg/injection, schedule: Q01DX009 (ip), vehicle: saline with Tween-80

Measured: T/C

COc1c(CNC(=O)CCl)cc2[nH]c(C)cc2c1CNC(=O)CCl
inactive: endpoint: mean survival time, dose: 12.5 mg/kg/injection, schedule: Q01DX009 (ip), vehicle: Klucel (hydroxypropylcellulose) (HPC) 98 % of control | endpoint: mean survival time, dose: 25.0 mg/kg/injection, schedule: Q01DX009 (ip), vehicle: Klucel (hydroxypropylcellulose) (HPC) 98 % of control and 101 % of control | endpoint: mean survival time, dose: 50.0 mg/kg/injection, schedule: Q01DX009 (ip), vehicle: Klucel (hydroxypropylcellulose) (HPC) 98 % of control and 103 % of control | endpoint: mean survival time, dose: 100.0 mg/kg/injection, schedule: Q01DX009 (ip), vehicle: Klucel (hydroxypropylcellulose) (HPC) 97 % of control and 102 % of control | endpoint: mean survival time, dose: 200.0 mg/kg/injection, schedule: Q01DX009 (ip), vehicle: Klucel (hydroxypropylcellulose) (HPC) 93 % of control and 104 % of control | endpoint: mean survival time, dose: 400.0 mg/kg/injection, schedule: Q01DX009 (ip), vehicle: Klucel (hydroxypropylcellulose) (HPC) 95 % of control

CCCCCC#CC(=O)OC
inactive: [1] 95 % of control | [2] 104 % of control | endpoint: mean survival time, dose: 100.0 mg/kg/injection, schedule: Q04DX003 (ip), vehicle: saline with Tween-80 94 % of control | [3] 103 % of control | endpoint: mean survival time, dose: 200.0 mg/kg/injection, schedule: Q04DX003 (ip), vehicle: saline with Tween-80 96 % of control

NC(=O)c1ncn(C2OC(CO)C(O)C2O)c1Cl (stereo not drawn)
inactive: endpoint: median survival time, dose: 8.0 mg/kg/injection, schedule: Q01DX005 (ip), vehicle: water 100 % of control | endpoint: median survival time, dose: 16.0 mg/kg/injection, schedule: Q01DX005 (ip), vehicle: water 103 % of control | endpoint: median survival time, dose: 32.0 mg/kg/injection, schedule: Q01DX005 (ip), vehicle: water 100 % of control | endpoint: median survival time, dose: 64.0 mg/kg/injection, schedule: Q01DX005 (ip), vehicle: water 100 % of control | endpoint: median survival time, dose: 128.0 mg/kg/injection, schedule: Q01DX005 (ip), vehicle: water 107 % of control

CCCCCCCCSC1=C(Cl)C(=O)C(OC)=C(OC)C1=O
inactive: endpoint: mean survival time, dose: 1.5 mg/kg/injection, schedule: Q01DX009 (ip), vehicle: saline with Tween-80 95 % of control | endpoint: mean survival time, dose: 3.0 mg/kg/injection, schedule: Q01DX009 (ip), vehicle: saline with Tween-80 98 % of control | endpoint: mean survival time, dose: 3.13 mg/kg/injection, schedule: Q01DX009 (ip), vehicle: saline with Tween-80 94 % of control | [4] 89 % of control and 98 % of control | [5] 96 % of control and 104 % of control | [6] 96 % of control and 102 % of control

CCOC(=O)C(C=O)(NC(=O)c1ccccc1)OCC (stereo not drawn)
inactive: [2] 100 % of control | [3] 105 % of control | [7] 96 % of control

O=C(c1ccccc1)c1ccsc1C(=O)O
inactive: endpoint: mean survival time, dose: 25.0 mg/kg/injection, schedule: Q04DX002 (ip), vehicle: saline with Tween-80 96 % of control | endpoint: mean survival time, dose: 50.0 mg/kg/injection, schedule: Q04DX002 (ip), vehicle: saline with Tween-80 96 % of control

CC(=O)/C(N=Nc1ccc(S(=O)(=O)c2ccc(N=N/C(C(C)=O)=C(/C)O)cc2)cc1)=C(\C)O
inactive: [2] 86 % of control | [3] 86 % of control | [7] 102 % of control

CCCCCCCCCCCCCCCCCCCOc1ccc(OCCCCCCCCCC)cc1
inactive: endpoint: mean survival time, dose: 100.0 mg/kg/injection, schedule: Q01DX001 (ip), vehicle: saline with Tween-80 95 % of control | endpoint: mean survival time, dose: 200.0 mg/kg/injection, schedule: Q01DX001 (ip), vehicle: saline with Tween-80 86 % of control | endpoint: mean survival time, dose: 400.0 mg/kg/injection, schedule: Q01DX001 (ip), vehicle: saline with Tween-80 86 % of control

COc1cc(C(C)(C)C)cc(OC)c1C(O)(c1c(OC)cc(C(C)(C)C)cc1OC)c1c(OC)cc(C(C)(C)C)cc1OC
inactive: [4] 100 % of control | [5] 104 % of control | [6] 104 % of control | [1] 102 % of control | [2] 105 % of control | [3] 88 % of control

Oc1c(Cl)cc(Cl)cc1/C=N/NC(=S)Nc1cc(C(F)(F)F)cc(C(F)(F)F)c1
inactive: endpoint: mean survival time, dose: 6.25 mg/kg/injection, schedule: Q01DX009 (ip), vehicle: olive oil, sesame oil, peanut oil 102 % of control | endpoint: mean survival time, dose: 12.5 mg/kg/injection, schedule: Q01DX009 (ip), vehicle: olive oil, sesame oil, peanut oil 100 % of control | endpoint: mean survival time, dose: 25.0 mg/kg/injection, schedule: Q01DX009 (ip), vehicle: olive oil, sesame oil, peanut oil 100 % of control | endpoint: mean survival time, dose: 50.0 mg/kg/injection, schedule: Q01DX009 (ip), vehicle: olive oil, sesame oil, peanut oil 102 % of control | endpoint: mean survival time, dose: 100.0 mg/kg/injection, schedule: Q01DX009 (ip), vehicle: olive oil, sesame oil, peanut oil 102 % of control | endpoint: mean survival time, dose: 200.0 mg/kg/injection, schedule: Q01DX009 (ip), vehicle: olive oil, sesame oil, peanut oil 94 % of control

COc1cccc2c1CCC1=C2CC=C2CC3(CCC21C)OCCO3 (stereo not drawn)
inactive: endpoint: mean survival time, dose: 100.0 mg/kg/injection, schedule: Q04DX003 (sc), vehicle: steriod suspending solution 91 % of control | endpoint: mean survival time, dose: 200.0 mg/kg/injection, schedule: Q04DX003 (sc), vehicle: steriod suspending solution 96 % of control | endpoint: mean survival time, dose: 400.0 mg/kg/injection, schedule: Q04DX003 (sc), vehicle: steriod suspending solution 97 % of control
